Test results reported in PMC4789278, “Pharmacological inhibition of LSD1 for the treatment of MLL-rearranged leukemia” (Journal of Hematology & Oncology, 2016).
Where two headings read alike, the source gives them in different places.

Assays:
[1] = tested on: H3K4me2 in MV4-11 cells; assay: Western blot of histone H3K4 methylation; assay type: cell-based, human; conditions: 3 days
Method: Compounds 1 and 2 were selected for further biological activity testing. MV4-11 cells were treated with these two compounds for 3 days. […] Other researchers observed the similar results using a different LSD1 inhibitor.
With increasing concentrations of a compound for […], 10^6 cells/well were incubated and histones extracted with the EpiQuik™ Total Histone Extraction Kit (Epigentek) according to the manufacturer’s protocol. Equal amounts of histones (2 μg) were separated on SDS-PAGE and transferred to PVDF membranes. The blots were probed with H3K4-Me2 and H3 primary antibodies (Cell Signaling), followed by antirabbit IgG (Thermo Scientific) secondary antibodies.

[2] = tested on: prostate cancer LNCaP cells; assay: Antiproliferation assay (MTT), LNCaP; assay type: cell-based; conditions: Homo sapiens, 360 h, 15-day treatment, read-out: LNCaP EC50 (antiproliferative)
Method: (§1) We next examined the spectrum of antitumor activity for compounds 1–4. These compounds were incubated with a panel of six human leukemia and solid tumor cell lines, including two MLL-rearranged leukemia cells MV4-11 and Molm-13 containing fusion oncogenes MLL-AF4 and -AF9, respectively. […] Also included in the studies are breast cancer MCF-7 and prostate cancer LNCaP cells. […]
(§2) Proliferation inhibition assay for suspension leukemia cells was performed using an XTT assay kit (Roche) with our previously described method. Proliferation inhibition assay for solid tumor cell lines MCF-7 and LNCaP was performed using our previous described MTT assay. The antiproliferation EC50 values were determined by Prism, and the reported results were the mean values of at least three independent experiments.

[3] = tested on: HoxA9 and Meis1 expression in MV4-11 cells; assay: Quantitative real-time PCR of HoxA9 and Meis1; assay type: cell-based, human
Method: Next, we examined whether LSD1 inhibition can block the expression of HoxA9 and Meis1, whose overexpression has been observed in MLL-rearranged leukemia.
For 3 days, 10^4 cells/well were incubated with a compound, and the RNA was extracted from cells using RNeasy mini kit (QIAGEN); 100–1000 ng of total RNA was reverse transcribed using iScript™ Reverse Transcription Supermix (Bio-Rad) using the manufacturer’s protocol. Quantitative real-time PCR was carried out using Fast SYBR Green Master Mix (Applied Biosystems) according to the manufacturer’s instructions. Measurements were performed in triplicate, using GAPDH as the reference gene. Real-time PCR was performed using Biosystems Step One Plus detection system. The following sequences of primers are used: […]

[4] = tested on: U937 leukemia cells; assay: Antiproliferation assay (XTT), U937; assay type: cell-based; conditions: Homo sapiens, U-937, 360 h; 15-day treatment; non-MLL leukemia cells; read-out: U937 EC50 (antiproliferative)
Method: as §1, §2

[5] = tested on: NB4 leukemia cells; assay: Antiproliferation assay (XTT), NB4; assay type: cell-based; conditions: Homo sapiens, 360 h; 15-day treatment; non-MLL leukemia cells; read-out: NB4 EC50 (antiproliferative)
Method: as §1, §2

[6] = tested on: human primary leukemia cells from an AML patient with MLL-ENL fusion oncogene; assay: Colony-forming assay; assay type: cell-based; conditions: 336 h, colonies counted after 14 days, read-out: colony-forming ability EC50
Method: Colony-forming assay using non-serum culture media represents a useful method to assess self-renewal capacity of stem-like cancer cells. The number of cell colonies formed in the assay reflects the proportion of stem-like cells in a given number of cancer cells. […] Human MLL-rearranged AML samples will be obtained from the Children’s Oncology Group (COG) Biopathology Center, in accordance with the IRB-approved protocol H-24170. The colony-forming assay was performed according to our previously published method. After 14 days, the colony number of each culture dish was counted and imported into Prism 5.0 and EC50 values were determined by using the sigmoidal dose response curve fitting in the software.

[7] = target: T1, human MAO-A (Homo sapiens, UniProt P21397); assay: MAO-A inhibition (MAO-Glo); assay type: biochemical
T1 construct: purchased Sigma
T1 sequence (P21397 1-527): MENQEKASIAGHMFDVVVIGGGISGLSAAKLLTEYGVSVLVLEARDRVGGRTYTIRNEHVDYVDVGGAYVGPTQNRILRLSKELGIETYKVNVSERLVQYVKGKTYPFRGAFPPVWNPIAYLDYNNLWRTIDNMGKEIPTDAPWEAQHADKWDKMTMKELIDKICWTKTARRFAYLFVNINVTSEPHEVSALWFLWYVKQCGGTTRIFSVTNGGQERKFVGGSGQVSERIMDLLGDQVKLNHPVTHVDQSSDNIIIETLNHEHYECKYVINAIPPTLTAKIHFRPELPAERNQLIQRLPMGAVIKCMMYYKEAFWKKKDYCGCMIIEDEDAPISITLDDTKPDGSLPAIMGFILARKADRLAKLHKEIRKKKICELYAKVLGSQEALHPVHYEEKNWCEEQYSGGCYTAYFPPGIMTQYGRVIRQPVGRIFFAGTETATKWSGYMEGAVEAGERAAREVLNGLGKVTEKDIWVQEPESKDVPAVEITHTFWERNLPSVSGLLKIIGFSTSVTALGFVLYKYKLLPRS
Method: The cyclopropylamine LSD1 inhibitors were generally derived from MAO-A/-B inhibitor tranylcypromine, an antidepression drug. Because MAO-A and -B play important roles in the degradation of neurotransmitters (e.g., serotonin and dopamine) in the central nervous system, selective inhibition for LSD1 is highly desirable.
Recombinant human MAO-A and -B were purchased from Sigma. The inhibitory activity was determined using MAO-Glo assay kit (Promega). In brief, following the manufacturer’s protocol, assays were performed in 384-well white plates (Corning) using MAO-A or -B (100 nM) with a final volume of 20 μL. Reactions were quenched after 60 min by adding reconstituted luciferin detection reagent (20 μL/well); 20 min after addition of the detection reagent, the luminescence of each well was measured using Beckman DTX-880 microplate reader. IC50 calculation was similar to that of LSD1.

[8] = tested on: MV4-11 cells; assay: FACS-based Annexin-V apoptosis assay; assay type: cell-based, human
Method: (§3) For Annexin V apoptosis assay, 10^5 cells/well were incubated with increasing concentrations of a compound for 7 or 14 days. Apoptosis was determined using the FITC Annexin V Apoptosis Detection Kit I (BD Bioscience) using the manufacturer’s protocol. For other FACS assays, cells were labeled with fluorochrome-conjugated monoclonal antibodies against human CD14, CD11b, CD45, or CD33 (BD Biosciences) according to the manufacturer’s recommendation. Cells were analyzed using a FACS Calibur (BD Biosciences/Applied Biosystems), and data were processed using the program Flowjo (version7.6.5).

[9] = tested on: MV4-11 cells; assay: FACS of differentiation markers CD14 / CD11b; assay type: cell-based, human; conditions: for cell populations expressing high levels of CD14: treatment for 12 days
Method: Importantly, only these stem-like cancer cells can form new tumors when transplanted into a new host, while the other non-stem cancer cells fail to do so. These stem-like cancer cells are more drug resistant and believed to be responsible for tumor metastasis and relapse. […] CD14 and CD11b are two cell surface proteins characteristic to differentiated macrophages/monocytes. […] Similarly, incubation with 2 led to considerably more CD11b^+ cells (Fig. 3b).
as §3

[10] = range covers MAO-A and MAO-B, read-out: IC50 against MAO-A and -B (range over both enzymes)

CN1CCN(C(=O)CNC2CC2c2ccc(OCc3ccccc3)cc2)CC1 (stereo not drawn) [Compound 1]
cellular levels of H3K4me2 [1]: increase cellular levels of H3K4me2 in a dose-dependent manner
EC50 [2]: 3.7 µM
expression of HoxA9 and Meis1 [3]: significantly decrease the expression of both HoxA9 and Meis1 in a dose-dependent manner
EC50 [4]: 18.9 µM
EC50 [5]: 19.4 µM
EC50 [6]: 0.43 µM
IC50 [7, 10]: 17.5 to 480 µM
IC50 ([7]; read-out: MAO-A IC50): 17.5 µM
apoptosis of MV4-11 cells ([8]; 30 nM, day 7): 12%
apoptosis of MV4-11 cells ([8]; 30 nM, day 14): 20%
apoptosis of MV4-11 cells ([8]; 300 nM, day 7): 13%
apoptosis of MV4-11 cells ([8]; 300 nM, day 14): 26%
cell populations expressing high levels of CD14 [9]: > 90%

CN1CCN(C(=O)CNC2CC2c2ccc(-c3ccc(F)nc3)cc2)CC1 (stereo not drawn) [Compound 2]
cellular levels of H3K4me2 [1]: increase cellular levels of H3K4me2 in a dose-dependent manner
EC50 [2]: 10 µM
expression of HoxA9 and Meis1 [3]: significantly decrease the expression of both HoxA9 and Meis1 in a dose-dependent manner
EC50 [4]: 34.6 µM
EC50 [5]: 18.9 µM
EC50 [6]: 0.52 µM
IC50 [7, 10]: 17.5 to 480 µM
IC50 ([7]; read-out: MAO-A IC50): 120 µM
apoptosis of MV4-11 cells ([8]; 0.1 μM, 7 days): 11%
apoptosis of MV4-11 cells ([8]; 0.1 μM, 14 days): 13%
apoptosis of MV4-11 cells ([8]; 1 μM, 7 days): 45%
apoptosis of MV4-11 cells ([8]; 1 μM, 14 days): 49%
CD11b+ cells ([9]; 1 μM): 19.5%
cell populations expressing high levels of CD14 [9]: > 90%
